This is an account of results in US20090131331A1 (DSM IP ASSETS B.V., priority 2005, published 2009).

In series [1] the test system is ACE (enzyme obtained from Sigma). Kind of series: ACE in phosphate buffered saline (PBS) pH 7.4 with a chloride concentration of 260 mM. The following applies: 50° C., up to 60 minutes.
Series [2] has as its system ACE. Kind of series: modified Matsui ACE inhibition assay. Format: biochemical. The following applies: as stated in description text; read-out: IC50 value in the Modified Matsui test. The method, then:
To determine the ACE inhibition activity of MAP and ITP, the chemically synthesised tripeptides were assayed according to the method of Matsui et al. (Matsui, T. et al. (1992) Biosci. Biotech. Biochem. 56: 517-518) with some minor modifications.
Each one of the four samples contained 75 μl 3 mM hippuryl histidine leucine (Hip-His-Leu, Sigma) dissolved in a 250 mM borate solution containing 200 mM NaCl, pH 8.3. ACE was obtained from Sigma. The mixtures were incubated at 37° C. and stopped after 30 min by adding 125 μl 0.5 M HCl. […] After incubation for 20 min. at 37° C., 4 ml 4 mM Na2SO3 in 0.2 M NaH2PO4 was added and the light absorbance at 416 nm was measured with UV/Vis spectrophotometer (Shimadzu UV-1601 with a CPS controller, Netherlands).
The amount of ACE inhibition (ACEI) activity was calculated as a percentage of inhibition compared with the conversion rate of ACE in the absence of an inhibitor according to the following formula: […]
Control 1=Absorbance without ACE inhibitory component (=max. ACE activity) [AU]. Control 2=Absorbance without ACE inhibitory component and without ACE (background) [AU]. Sample1=Absorbance in the presence of ACE and the ACE inhibitory component [AU]. Sample 2=Absorbance in the presence of the ACE inhibitory component, but without ACE [AU]. […]

Series [3] has as its target ACE (Homo sapiens, UniProt P12821). The following applies: literature (Nakamura 1995; Aryoshi 1993); read-out: IC50 reported earlier as ACE inhibiting peptides; cited from earlier work.
For series [4], the system named is ACE. Kind of series: at-line ACE inhibition assay. Format: biochemical. Here is the method:
For the at-line ACE inhibition assay 27 μl of a 33.4 mU ml^−1 ACE (enzyme obtained from Sigma) in phosphate buffered saline (PBS) pH 7.4 with a chloride concentration of 260 mM was added and the mixture was allowed to incubate for 5 minutes on a 96 well plate mixer at 700 RPM. After the incubation period 13 μl of a 0.35 mM hippuric acid-histidine leucine (HHL) solution in PBS buffer was added and mixed for 1 minute at 700 RPM. The mixture was allowed to react for 60 minutes at 50° C. in a GC-oven. After the reaction the plate was cooled in melting ice.
The 96 well plate was then analysed on a flash-HPLC-column. Of the reaction mixture of each well 30 μl was injected on a Chromlith Flash RP18e 25×4.6 mm HPLC column (Merck, Darmstadt, Germany) equipped with a 10×4.6 mm RP18e guard column from the same supplier. The isocratic mobile phase consisted of a 0.1% solution of TFA in water/acetonitrile 79/21. […] Hippuric acid (H) and HHL were monitored at 280 nm. The peak heights of H and HHL were measured and the ACE inhibition (ACEI) of each fraction was calculated according to the equation: […]
• DCw Degree of Cleavage by ACE of HHL to H and HL in water • DCa Degree of Cleavage of HHL to H and HL for the analyte The Degree of Cleavage was calculated by expressing the peak height of H as a fraction of the sum of the peak heights of H and HHL.

Series [5] deals with pepsin (Fluka order no. 77161); 8 times USP pancreatin (Sigma order no. P7545). Kind of series: simulated human gastro-intestinal tract (GIT procedure): pepsin with falling pH, then pancreatin up to pH 7.1. The following applies: 37.5° C., up to t=125 min.

Chain of ACE (Homo sapiens, UniProt P12821) (P12821 30-1306, species assumed): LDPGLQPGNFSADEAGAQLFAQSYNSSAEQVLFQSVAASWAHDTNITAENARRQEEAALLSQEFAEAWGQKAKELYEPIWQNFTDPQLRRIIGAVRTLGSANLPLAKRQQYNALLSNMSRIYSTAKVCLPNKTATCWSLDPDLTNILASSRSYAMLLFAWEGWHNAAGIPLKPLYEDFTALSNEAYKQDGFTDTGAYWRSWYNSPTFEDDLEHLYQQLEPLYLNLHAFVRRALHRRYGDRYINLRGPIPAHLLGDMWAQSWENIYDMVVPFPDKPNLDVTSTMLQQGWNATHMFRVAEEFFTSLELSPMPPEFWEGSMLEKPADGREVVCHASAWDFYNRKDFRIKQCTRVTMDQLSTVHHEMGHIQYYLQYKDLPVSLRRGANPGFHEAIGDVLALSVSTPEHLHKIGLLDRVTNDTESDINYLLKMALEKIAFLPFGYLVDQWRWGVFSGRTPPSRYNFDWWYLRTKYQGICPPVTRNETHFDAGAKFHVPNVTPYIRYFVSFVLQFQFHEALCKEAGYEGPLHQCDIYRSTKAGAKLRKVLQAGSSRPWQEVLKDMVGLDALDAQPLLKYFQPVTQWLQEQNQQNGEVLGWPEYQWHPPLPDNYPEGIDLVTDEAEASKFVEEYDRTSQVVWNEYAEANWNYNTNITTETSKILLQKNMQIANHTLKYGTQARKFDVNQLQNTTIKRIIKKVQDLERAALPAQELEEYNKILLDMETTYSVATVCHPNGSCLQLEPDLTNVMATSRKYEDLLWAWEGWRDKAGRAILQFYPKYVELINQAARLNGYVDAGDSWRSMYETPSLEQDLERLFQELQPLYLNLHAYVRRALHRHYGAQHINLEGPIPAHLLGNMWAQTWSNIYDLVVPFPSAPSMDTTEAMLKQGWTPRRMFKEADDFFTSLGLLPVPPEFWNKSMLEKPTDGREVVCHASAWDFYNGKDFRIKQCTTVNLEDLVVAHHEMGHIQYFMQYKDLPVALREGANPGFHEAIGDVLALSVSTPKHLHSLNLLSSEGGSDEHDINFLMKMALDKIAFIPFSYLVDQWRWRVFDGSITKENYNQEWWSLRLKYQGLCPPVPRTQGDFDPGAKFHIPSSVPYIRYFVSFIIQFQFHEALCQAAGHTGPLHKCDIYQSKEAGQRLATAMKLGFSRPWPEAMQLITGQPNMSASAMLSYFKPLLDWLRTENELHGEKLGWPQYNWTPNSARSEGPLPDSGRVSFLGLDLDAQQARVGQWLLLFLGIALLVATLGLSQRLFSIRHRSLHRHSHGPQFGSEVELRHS

Regarding Hip-His-Leu, the cleaved bond entry in series [1] is listed as “Hip-His”. With “IPP: known ACE inhibiting tripeptide, kappa-casein f 108-110; chemically synthesized internal reference”, the IC50 (usually the concentration at which inhibition is half-maximal) is 2 µM with ACE [2], 5 µM with ACE [3] and 7.1 µM in the series on ACE [4].

Take “LPP: known ACE inhibiting tripeptide, β-casein f151-153 (UniProt P02666 166-168, looked up, fragment)”: in the series with ACE [3], the IC50 was 9.6 µM. Take Met-Ala-Pro: in series [5], the “amount per gram powder before and after GIT” value is 2851.4 μg g^−1 powder before, 3095.8 after GIT.
